Measured values from patent publication US20240132503A1, “SALT FORM AND CRYSTAL FORM OF PYRAZOLE SUBSTITUTED IMIDAZO[1,2- A]QUINOXALINE DERIVATIVE” (OCUMENSION THERAPEUTICS (SUZHOU) CO., LTD, priority 2021, published 2024).
Read-outs that look alike come from different tables or passages of the source.

How the values were obtained:
[1] = Pharmacokinetics in plasma and eye tissues of male SD rats after single administration of eye drop; format: in vivo; settings: for half-life / AUC(0-t) / Cmax / Tmax / AUC(0-inf) / MRT inf / Kp / MRT last: rat, topical or ocular; for AUC(0-inf) / MRT inf: extrapolated; for MRT inf: read-out: MRT0-inf; for Kp: read-out: AUC ratio (tissue AUC0-last/plasma AUC0-last); for MRT last: read-out: MRT0-last
Procedure: Test purpose: to study pharmacokinetics of the compound in eye tissues of male SD rats after single administration of eye drop
Test material: SD rats (male, 7 to 10 weeks of age, WTLH/SLAC)
Test operation: In this test, 18 male SD rats were provided by Beijing Vital River Laboratory Animal Technology Co., Ltd., and were randomly divided into 6 groups (3 rats/group), and each group of animals were given […] (5 mg/mL for both eyes, 30 μL/eye) of OT202 eye drops during single administration. All animals were not fasted before administration.

[2] = molecular target: KDR (VEGFR-2) protein kinase (Homo sapiens (Human), UniProt P35968); experiment: In vitro evaluation of inhibitory activity against KDR (VEGFR-2) protein kinase (ADP-Glo kinase assay); format: biochemical
Description: The KDR Kinase Kit was designed to use Kinase-Glo® MAX as a teat reagent to measure KDR kinase activity, and the IC50 value of the compound was used as an indicator for compound screening and analysis.
ADP-GLO™ Kinase Assay is an assay reaction for measuring adenosine diphosphate formed by the kinase by using a luminescent kinase; and ADP was converted into ATP, that is, conversion into a light signal via Ultra-Glo™ Luciferase. The light signal was positively correlated with the quantity of ADP and kinase activity. Such assay was very suitable for determining the activity of the compound, making the assay ideal for primary screening and a kinase selectivity assay. The ADP-Glo™ Kinase Assay can be used to monitor the activity of almost all ADP-producing enzymes (for example, a kinase or ATPase): • 1) Enzyme, substrate, ATP and inhibitors were diluted in kinase buffer; • 2) 384-well plate: 1 μL of inhibitor or (5% dimethyl sulfoxide solution) 2 μL of KDR enzyme, and 2 μL of substrate/ATP mixture; • 3) The 384-well plate was incubated at room temperature for 60 minutes; • 4) 5 μL of ADP-GLO™ reagent was added; • 5) The 384-well plate was incubated at room temperature for 40 minutes; • 6) 10 μL of kinase test reagent was added; • 7) The 384-well plate was incubated at room temperature for 30 minutes; • 8) Lumination (integration time: 0.5 to 1 second) was recorded. […]

[3] = Solid stability test of crystal form A (influencing factors and accelerated conditions; HPLC purity and XRPD); format: physicochemical
Procedure: All the stability samples were subjected to XRPD detection to detect changes in crystal forms.
About 10 mg of the crystal form was accurately weighed, put in a dry and clean glass bottle, spread into a thin layer, covered with aluminum foil with small pierced holes, and put under conditions of the influencing factor test and accelerated conditions. A sample under sunlight conditions (1200000 Lux visible light, and 200 W ultraviolet light) was put in a transparent glass bottle and fully exposed, and a sample used for XRPD detection was put separately.
After the sample was taken out by a time point, the glass bottle was covered with a lid, sealed with parafilm, and stored in a refrigerator at −20° C. During sample preparation, the sample was taken out of the refrigerator and recovered to room temperature, 10 mL of 80% ACN was added, and the sample was dissolved by ultrasonication for 2 minutes to obtain a solution at a concentration of about 1 mg/mL. A liquid phase was used for sample analysis, and the test result was compared with an initial test result on Day 0.
Preparation of a standard solution on Day 0: About 10 mg of the crystal form was weighed, put into a 10 mL volumetric flask, dissolved in 80% acetonitrile and diluted to the scale.
In addition, all the stability samples were subjected to the HPLC tests.

[4] = SD (Sprague-Dawley), male SD rats, single eye drop 5 mg/mL, 30 μL/eye, both eyes, Aqueous humor of anterior chamber
[5] = SD (Sprague-Dawley), male SD rats, single eye drop 5 mg/mL, 30 μL/eye, both eyes, Bulbar conjunctiva
[6] = SD (Sprague-Dawley), male SD rats, single eye drop 5 mg/mL, 30 μL/eye, both eyes, Cornea
[7] = SD (Sprague-Dawley), male SD rats, single eye drop 5 mg/mL, 30 μL/eye, both eyes, Plasma
[8] = SD (Sprague-Dawley), male SD rats, single eye drop 5 mg/mL, 30 μL/eye, both eyes, Upper and lower eyelids
[9] = male SD rats, single eye drop 5 mg/mL, 30 μL/eye, both eyes, Aqueous humor of anterior chamber
[10] = male SD rats, single eye drop 5 mg/mL, 30 μL/eye, both eyes, Bulbar conjunctiva
[11] = male SD rats, single eye drop 5 mg/mL, 30 μL/eye, both eyes, Cornea
[12] = male SD rats, single eye drop 5 mg/mL, 30 μL/eye, both eyes, Plasma
[13] = male SD rats, single eye drop 5 mg/mL, 30 μL/eye, both eyes, Upper and lower eyelids
[14] = 40° C., relative humidity 75%, opened, 1 months
[15] = 40° C., relative humidity 75%, opened, 2 months
[16] = 40° C., relative humidity 75%, opened, 3 months
[17] = 60° C., relative humidity 75%, opened, 1 month
[18] = 60° C., relative humidity 75%, opened, 2 months
[19] = Control group kept in the dark, wrapped with tin foil
[20] = High humidity (relative humidity 92.5%, opened), 1 week
[21] = High humidity (relative humidity 92.5%, opened), 2 week
[22] = High temperature (60° C., opened), 1 week
[23] = High temperature (60° C., opened), 2 week
[24] = Visible light + ultraviolet light (ICH condition), visible 1200000 lux·hrs

KDR (VEGFR-2) protein kinase, sequence (P35968 20-1356): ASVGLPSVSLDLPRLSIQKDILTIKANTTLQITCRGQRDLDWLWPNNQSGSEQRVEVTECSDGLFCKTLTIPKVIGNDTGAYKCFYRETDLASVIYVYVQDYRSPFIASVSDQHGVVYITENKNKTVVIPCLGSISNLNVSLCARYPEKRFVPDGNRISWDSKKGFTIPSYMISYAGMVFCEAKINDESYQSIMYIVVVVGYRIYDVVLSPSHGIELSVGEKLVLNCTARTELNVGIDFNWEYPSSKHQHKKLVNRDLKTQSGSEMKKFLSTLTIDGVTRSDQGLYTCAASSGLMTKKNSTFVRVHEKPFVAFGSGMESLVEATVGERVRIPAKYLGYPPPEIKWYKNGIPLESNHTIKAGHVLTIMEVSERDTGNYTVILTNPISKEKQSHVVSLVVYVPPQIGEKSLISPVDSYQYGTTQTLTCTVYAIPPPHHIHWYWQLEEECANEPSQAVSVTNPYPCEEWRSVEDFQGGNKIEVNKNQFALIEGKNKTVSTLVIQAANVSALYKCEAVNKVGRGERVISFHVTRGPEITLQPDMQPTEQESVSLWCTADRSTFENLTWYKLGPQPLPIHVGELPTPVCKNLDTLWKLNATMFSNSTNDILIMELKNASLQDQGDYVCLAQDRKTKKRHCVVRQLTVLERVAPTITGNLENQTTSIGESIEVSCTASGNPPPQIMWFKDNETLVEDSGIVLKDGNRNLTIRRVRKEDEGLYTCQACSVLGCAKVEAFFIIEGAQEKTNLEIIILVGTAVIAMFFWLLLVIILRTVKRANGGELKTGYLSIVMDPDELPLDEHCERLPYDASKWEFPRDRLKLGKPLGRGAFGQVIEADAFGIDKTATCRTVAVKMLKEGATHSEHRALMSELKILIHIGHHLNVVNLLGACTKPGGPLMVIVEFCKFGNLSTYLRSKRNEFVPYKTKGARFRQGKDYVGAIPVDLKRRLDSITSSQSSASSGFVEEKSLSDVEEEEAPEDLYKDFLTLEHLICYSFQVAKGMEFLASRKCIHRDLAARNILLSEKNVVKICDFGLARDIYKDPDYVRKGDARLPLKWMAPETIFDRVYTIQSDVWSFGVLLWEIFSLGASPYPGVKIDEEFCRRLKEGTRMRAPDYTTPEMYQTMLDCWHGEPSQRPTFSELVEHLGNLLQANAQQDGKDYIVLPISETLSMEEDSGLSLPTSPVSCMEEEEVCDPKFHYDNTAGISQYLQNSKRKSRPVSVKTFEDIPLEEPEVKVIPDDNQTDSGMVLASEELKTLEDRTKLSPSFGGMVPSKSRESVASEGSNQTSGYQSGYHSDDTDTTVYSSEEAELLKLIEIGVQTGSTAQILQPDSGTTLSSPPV

half-life ([1]; SD (Sprague-Dawley), both eyes, male SD rats, single eye drop 5 mg/mL, 30 μL/eye, Aqueous humor of anterior chamber, sampling range 6-24 h): 12.3 h | half-life ([1]; SD (Sprague-Dawley), both eyes, male SD rats, single eye drop 5 mg/mL, 30 μL/eye, Bulbar conjunctiva, sampling range 1-24 h, linear regression coefficient of elimination phase less than 0.9): 5.12 h | half-life ([1]; SD (Sprague-Dawley), both eyes, male SD rats, single eye drop 5 mg/mL, 30 μL/eye, Cornea, sampling range 1-24 h): 4.84 h | half-life ([1]; SD (Sprague-Dawley), both eyes, male SD rats, single eye drop 5 mg/mL, 30 μL/eye, Plasma, sampling range 1-6 h, linear regression coefficient of elimination phase less than 0.9): 4.8 h | half-life ([1]; SD (Sprague-Dawley), both eyes, male SD rats, single eye drop 5 mg/mL, 30 μL/eye, Upper and lower eyelids, sampling range 1-24 h): 9.45 h | AUC(0-t) [1, 4]: 0.657 µM·h | Cmax [1, 4]: 560 nM | Tmax [1, 4]: 0.5 h | AUC(0-inf) [1, 4]: 0.711 µM·h | AUC(0-t) [1, 5]: 15.5 µM·h | Cmax [1, 5]: 4510 nM | Tmax [1, 5]: 0.5 h | AUC(0-inf) [1, 5]: 16.4 µM·h | AUC(0-t) [1, 6]: 2.53 µM·h | Cmax [1, 6]: 1590 nM | Tmax [1, 6]: 0.5 h | AUC(0-t) [1, 7]: 0.00532 µM·h | Cmax [1, 7]: 1.23 nM | Tmax [1, 7]: 1 h | AUC(0-inf) [1, 7]: 0.00956 µM·h | AUC(0-t) [1, 8]: 65.5 µM·h | Cmax [1, 8]: 10400 nM | Tmax [1, 8]: 0.5 h | pharmacokinetic features, including eye-to-blood ratio, tissue exposure ([1]; conclusion in words): good pharmacokinetic features | AUC0-inf/AUC0-last (%) [1, 9]: 108% | Tlast [1, 9]: 24.0 h | AUC0-inf/AUC0-last (%) [1, 10]: 106% | Tlast [1, 10]: 24.0 h | AUC0-inf/AUC0-last (%) [1, 11]: 102% | Tlast [1, 11]: 24.0 h | AUC0-inf/AUC0-last (%) [1, 12]: 180% | Tlast [1, 12]: 6.00 h | AUC0-inf/AUC0-last (%) [1, 13]: 122% | AUC ratio (tissue AUC0-last/plasma AUC0-last) [1, 13]: 12300 | Tlast [1, 13]: 24.0 h | MRT inf [1, 9]: 6.27 h | Kp [1, 9]: 123 | MRT last [1, 9]: 3.35 h | MRT inf [1, 10]: 6.73 h | Kp [1, 10]: 2910 | MRT last [1, 10]: 5.28 h | AUC(0-inf) [1, 11]: 2.59 µM·h | MRT inf [1, 11]: 5.74 h | Kp [1, 11]: 476 | MRT last [1, 11]: 5.05 h | MRT inf [1, 12]: 7.39 h | MRT last [1, 12]: 2.98 h | AUC(0-inf) [1, 13]: 80 µM·h | MRT inf [1, 13]: 13.7 h | MRT last [1, 13]: 8.4 h | IC50 [2]: 28 nM | inhibitory activity against KDR (VEGFR-2) ([2]; conclusion in words): good inhibitory activity | Crystal form (XRPD) [3, 14]: Crystal form A | Purity (area %) [3, 14]: 99.12 area % | Crystal form (XRPD) [3, 15]: Crystal form A | Purity (area %) [3, 15]: 99.06 area % | Crystal form (XRPD) [3, 16]: Crystal form A | Purity (area %) [3, 16]: 99.04 area % | Crystal form (XRPD) [3, 17]: Crystal form A | Purity (area %) [3, 17]: 99.15 area % | Crystal form (XRPD) [3, 18]: Crystal form A | Purity (area %) [3, 18]: 99.03 area % | Crystal form (XRPD) [3, 19]: Crystal form A | Purity (area %) [3, 19]: 99.12 area % | Crystal form (XRPD) ([3]; Day 0): Crystal form A | Purity (area %) ([3]; Day 0): 99.05 area % | Crystal form (XRPD) [3, 20]: Crystal form A | Purity (area %) [3, 20]: 99.03 area % | Crystal form (XRPD) [3, 21]: Crystal form A | Purity (area %) [3, 21]: 99.11 area % | Crystal form (XRPD) [3, 22]: Crystal form A | Purity (area %) [3, 22]: 98.99 area % | Crystal form (XRPD) [3, 23]: Crystal form A | Purity (area %) [3, 23]: 99.10 area % | Crystal form (XRPD) [3, 24]: Crystal form A | Purity (area %) [3, 24]: 99.12 area % | change in purity and crystal form ([3]; all stability conditions (high temperature, high humidity and sunlight)): no significant change | chemical stability ([3]; conclusion in words): good chemical stability
SMILES: c1cn2c(n1)c(Nc1ccc(N3CCOCC3)cc1)nc1ccc(-c3cn[nH]c3)cc12
